In patent US8759033B2, “CSNR-deficient actinobacteria for the production of an enzyme having chitosanase activity” (Socpra Sciences et Genie S.E.C., priority 2012, dated 2014):

Key:
CsnR [1] = molecular target: T1, CsnR (Streptomyces lividans, UniProt A0ABN4DYL3); test: EMSA equilibrium competition with DNA competitors against labeled csnA-WT probe; settings: competitor double-stranded oligonucleotide 0.1 to 125 nM, 0.03 nM labeled csnA-WT probe, ~8.5 pmol CsnR, three independent experiments; read-out: IC50 (nM), effect of mutations in the operator sequence on CsnR binding
Method: (§1) For the electrophoretic mobility shift assay (EMSA), pairs of complementary oligonucleotides were annealed, generating double-stranded oligonucleotides csnA-WT (wild type), csnA-M1, csnA-M2, csnA-MM, and csnR-WT (see Table 3). Fifty picomoles of double-stranded oligonucleotide was end labeled with ^[γ-32P]ATP (3,000 Ci/mmol) and 20 U of T4 polynucleotide kinase and purified on a G-25 column. DNA binding reaction mixtures (24 μl) contained 10 mM HEPES (pH 7.9), 10% glycerol, 0.2 mM EDTA, 0.5 mM phenylmethylsulfonyl fluoride (PMSF), 0.25 mM DTT, 1 μg poly(dI-dC), and 150 mM KCl. For equilibrium dissociation constant (KD) determination, various concentrations of labeled csnA-WT or csnR-WT probe (0.1 nM to 1.5 nM) and ˜8.5 pmol of purified CsnR were used. For the determination of the 50% inhibitory concentration (IC50) of the DNA competitors, 0.03 nM labeled csnA-WT probe and ˜8.5 pmol of CsnR were used with various concentrations of competitor double-stranded oligonucleotide (0.1 to 125 nM). For the sugar binding assay, ˜8.5 pmol of CsnR was preincubated with glucose, GlcNAc, galactosamine, GlcN, or chitosan oligosaccharides (GlcN)2 to (GlcN)5 at various concentrations (0.00075 to 75 mM) in the binding reaction mixture for 15 min on ice before the addition of labeled csnA-WT probe (0.03 nM). Reaction mixtures were incubated at room temperature for 15 min with the labeled probe and then subjected to electrophoresis at 4° C. in a prerun gel (15 min) of 6% polyacrylamide (10 mM Tris, 80 mM glycine, 0.4 mM EDTA [pH 8.3]). Following electrophoresis, gels were dried, and band intensities were visualized with a Phosphorlmager™ and estimated with ImageQuant™ software (version 5.2). All determinations were done in triplicate. KD calculations were done with the Michaelis-Menten nonlinear fit (least squares), and the one-site log IC50 nonlinear fit (least squares) was used for IC50 calculations (GraphPad Prism™ version 5.03 for Windows; GraphPad, San Diego, Calif.).

CsnR [2] = molecular target: T1, CsnR; test: EMSA sugar binding assay: interference with CsnR binding to csnA-WT operator; settings: for effect on CsnR binding to operator (summary statement): equilibrium competition experiment and IC50 determination; for effect on gel shift pattern of CsnR with csnA-WT operator: saccharide at 500 nM, FIG. 9; for interference with CsnR binding to the csnA-WT probe: maximal tested concentration of 75 mM
Method: as §1, with “([…])” for “(GlcN)5 at various concentrations (0.00075 to 75 mM)”

T1 sequence (A0ABN4DYL3 entry or part of it): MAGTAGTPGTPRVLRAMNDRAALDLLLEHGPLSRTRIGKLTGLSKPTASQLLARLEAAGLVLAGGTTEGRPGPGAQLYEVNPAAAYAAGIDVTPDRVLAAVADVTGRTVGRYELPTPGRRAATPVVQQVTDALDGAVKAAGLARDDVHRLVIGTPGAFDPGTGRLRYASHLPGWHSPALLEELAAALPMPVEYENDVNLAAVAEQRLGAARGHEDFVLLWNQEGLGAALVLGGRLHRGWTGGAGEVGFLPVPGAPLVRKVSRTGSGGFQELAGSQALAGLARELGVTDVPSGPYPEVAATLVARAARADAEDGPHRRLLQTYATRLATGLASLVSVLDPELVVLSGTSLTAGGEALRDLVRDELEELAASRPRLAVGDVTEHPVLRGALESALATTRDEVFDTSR

Compound | IC50 (CsnR [1]) | effect on CsnR binding to operator (summary statement) (CsnR [2]) | effect on CsnR binding to operator (summary statement) (CsnR [2]; listed as (GlcN)2) | effect on gel shift pattern of CsnR with csnA-WT operator (CsnR [2]) | interference with CsnR binding to the csnA-WT probe (CsnR [2])
csnA-M2: double-stranded oligonucleotide, csnA operator mutated at position +6, SEQ ID NO: 44 (DNA CCTCTTCTGGTAGGAAACTTTCCGATCAGT; double-stranded, further chemistry not given here) | 2.7 nM |  |  |  | 
NC1C(OC2C(CO)OC(O)C(N)C2O)OC(CO)C(O)C1O (stereo not drawn) [chitosan dimer] |  | best effector | preferential CsnR ligand molecule | strongly affected | 
N[C@H]1C(O)O[C@H](CO)[C@H](O)[C@@H]1O (stereo partly drawn) [galactosamine] |  | no effect |  |  | do not interfere
csnA-MM: double-stranded oligonucleotide, csnA operator doubly mutated at +2 and +6, SEQ ID NO: 45 (CCTCTTCTGGTAGGAAACTGTCCGATCAGT; double-stranded, further chemistry not given here) | 105 nM |  |  |  | 
O=C[C@H](O)[C@@H](O)[C@H](O)[C@H](O)CO [glucose] |  | no effect |  | no effect | do not interfere
CC(=O)N[C@H]1C(O)O[C@H](CO)[C@@H](O)[C@@H]1O (stereo partly drawn) [GlcNAc, N-acetyl-D-glucosamine] |  | no effect |  | no effect | do not interfere
csnA-WT: double-stranded oligonucleotide, wild-type csnA operator, SEQ ID NO: 42 (CCTCTTCTGGTAGGAAACTTTCCTATCAGT; double-stranded, further chemistry not given here) | 1.3 nM |  |  |  | 
csnA-M1: double-stranded oligonucleotide, csnA operator mutated at position +2, SEQ ID NO: 43 (DNA CCTCTTCTGGTAGGAAACTGTCCTATCAGT; double-stranded, further chemistry not given here) | 52.1 nM |  |  |  | 
NC1C(OC2C(CO)OC(OC3C(CO)OC(OC4C(CO)OC(OC5C(CO)OC(O)C(N)C5O)C(N)C4O)C(N)C3O)C(N)C2O)OC(CO)C(O)C1O (stereo not drawn) [chitosan pentamer] |  |  |  | strongly affected | 
N[C@H]1C(O)O[C@H](CO)[C@@H](O)[C@@H]1O (stereo partly drawn) [GlcN, D-glucosamine] |  | impaired |  | strongly affected | 
